According to PMC6778101 (Nature Communications, 2019):
Like-named read-outs stand apart in the source and are kept apart here. Ends that are not written are not given here. Peptide text beside a SMILES is read from it.

Tests used:
[1] = tested on: E. coli K-12 BW25113 carrying ASKA plasmids; assay: microbe, parasite or virus in culture; assay type: cell-based, Escherichia coli; details: for MIC fold change: MIC of ASKA pooled library / MIC of E.coli carrying empty ASKA plasmid; for MIC value of E. coli K-12 BW25113 carrying the empty plasmid of the ASKA library / MIC value of E. coli K-12 BW25113 carrying the pooled plasmids of the ASKA library: MS medium + 10 µg mL−1 CHL + 500 µM IPTG, 5 × 10^5 cells, 16–18 h, 37 °C; for Average fold change of the 3 replicates (MIC pooled ASKA library / MIC empty plasmid): mean of three biological replicates
Outline: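 E. coli BW25113 transformed with the pooled ASKA ORF overexpression library, or empty-vector control, grown with CHL, induced with IPTG.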

[2] = tested on: E. coli K-12 BW25113; assay: microbe, parasite or virus in culture; assay type: cell-based, Escherichia coli; details: for MIC: starting wild-type strain of the evolution experiment, broth dilution, MS medium, 5 × 10^5 cells/mL, 30 °C, 24 h, MIC = OD600 < 0.05; for MIC in 30 °C / MIC in 37 °C: strain not given
[3] = tested on: S. enterica LT2; assay type: cell-based, Salmonella enterica subsp. enterica serovar Typhimurium; details: broth dilution, 37 °C, 18 h
Description: Unless otherwise indicated, we used E. coli K-12 BW25113 in all high-throughput experiments. To investigate the impact of mutation rate on evolution of AMP resistance, we initiated laboratory evolution with a mutator strain E. coli mutD5 that carries mutations in the dnaQ gene (L73W and A164V).
MICs were determined using a standard serial broth dilution technique. Briefly, 11-step serial dilutions were prepared in 96-well microtiter plates with three replicates per strain and antimicrobial compound. Each experiment was repeated at least twice. 5 × 10^5 cells/mL were inoculated into each well, and the plates were incubated at 30 °C in case of E. coli K-12 BW25113, and its antibiotic and AMP-adapted lines, or 37 °C in case of the other bacterial species. Plates were shaken at 300 r.p.m. during incubation for 24 and 18 h, respectively. Cell growth was monitored by measuring the optical density (OD600 value, Biotek Synergy 2 microplate reader was used for this purpose). […] Relative MIC was calculated as follows: MICrelative = MICevolved/MICcontrol.

[4] = tested on: Human red blood cells; assay: Hemolysis assay; assay type: cell-based; details: for ATI (activity/toxicity index), ratio MHC / MM: MHC on human red blood cells / median of MICs in E. coli K12
Description: Human red blood cells (hemoglobin concentration (Hb) 150–160 g L^−1) were collected from apparently healthy patients in EDTA tubes. 600 µL of EDTA-blood were washed in TBS buffer (10 mM TRIS, 150 mM NaCl) and centrifuged at 1500 × g for 1 min until the supernatant became colorless. The final pellet was diluted to 5 mL with TBS buffer. Hundred microliters of this cell suspension was pipetted into sterile Eppendorf tubes together with twofold serial dilutions of each compound to a final volume of 200 μl. Final concentrations ranged between 2500 µg mL^−1–9.75 µg mL^−1. Following incubation for one hour at 37 °C, samples were centrifuged at 1500 g for 1 min to precipitate the red blood cells. All supernatants were transferred to sterile 96-well plates for the measurement of their direct optical density (OD) at 565 nm wavelength (Multiskan FC microplate reader, Thermo Scientific). Melittin (Bachem) at concentration of 50 µg.mL^−1 and TBS were used as positive (100% hemolysis) and negative (no hemolysis) controls, respectively. Haemolytic effect of each peptide at each concentration was calculated as follows: Hemolysis effect = (Compound OD565nm − TBS OD565nm) × 100/(Melitin OD565nm − TBS OD565nm).

[5] = replicate 1 (first line per drug)
[6] = replicate 2 (second line per drug)
[7] = replicate 3 (third line per drug)

## NC[C@H]1O[C@H](O[C@H]2[C@H](O)[C@@H](O[C@H]3O[C@H](CO)[C@@H](O)[C@H](N)[C@H]3O)[C@H](N)C[C@@H]2N)[C@H](O)[C@@H](O)[C@@H]1O [KAN, Kanamycin]
[1]; [5]
  MIC fold change: 1.3
[1]; [6]
  MIC fold change: 1.3
[1]; [7]
  MIC fold change: 1.69
[1]; Replicate 1
  MIC value of E. coli K-12 BW25113 carrying the empty plasmid of the ASKA library: 9.65 µg/mL
  MIC value of E. coli K-12 BW25113 carrying the pooled plasmids of the ASKA library: 12.55 µg/mL
[1]; Replicate 2
  MIC value of E. coli K-12 BW25113 carrying the empty plasmid of the ASKA library: 7.43 µg/mL
  MIC value of E. coli K-12 BW25113 carrying the pooled plasmids of the ASKA library: 9.65 µg/mL
[1]; Replicate 3
  MIC value of E. coli K-12 BW25113 carrying the empty plasmid of the ASKA library: 7.43 µg/mL
  MIC value of E. coli K-12 BW25113 carrying the pooled plasmids of the ASKA library: 12.55 µg/mL
[1]
  Average fold change of the 3 replicates (MIC pooled ASKA library / MIC empty plasmid): 1.43
[2]
  MIC: 8 µg/mL

## CC[C@H](C)[C@@H]1NC(=O)CNC(=O)[C@H](CCCNC(=N)N)NC(=O)[C@H](Cc2ccc(O)cc2)NC(=O)[C@@H]2CSSC[C@H](NC1=O)C(=O)N[C@@H](Cc1ccc(O)cc1)C(=O)N[C@@H](CCCNC(=N)N)C(=O)N[C@@H](CCCCN)C(=O)N[C@H](C(=O)N[C@@H](CCCNC(=N)N)C(N)=O)CSSC[C@H](NC(=O)[C@H](Cc1c[nH]c3ccccc13)NC(=O)[C@@H](N)CCCNC(=N)N)C(=O)N[C@@H](Cc1ccccc1)C(=O)N[C@@H](CCCNC(=N)N)C(=O)N[C@@H](C(C)C)C(=O)N2 [TPII, tachyplesin II] (HELM PEPTIDE1{R.W.C.F.R.V.C.Y.R.G.I.C.Y.R.K.C.R.[am]}$PEPTIDE1,PEPTIDE1,3:R3-16:R3|PEPTIDE1,PEPTIDE1,7:R3-12:R3$$$V2.0; N-terminus and C-terminus assumed; bridges inferred)
[3]; starting strain, MS medium
  MIC: 4 µg/mL
[4]
  ATI (activity/toxicity index), ratio MHC / MM: 155.22
[1]; [5]
  MIC fold change: 1
[1]; [6]
  MIC fold change: 1
[1]; [7]
  MIC fold change: 1
[1]
  Average fold change of the 3 replicates (MIC pooled ASKA library / MIC empty plasmid): 1.00
[2]; incubation time 24 hour
  MIC in 30 °C: 5 µg/mL
  MIC in 37 °C: 5 µg/mL
[2]; incubation time 48 hour
  MIC in 30 °C: 5 µg/mL
  MIC in 37 °C: 6 µg/mL
[2]; incubation time 72 hour
  MIC in 30 °C: 6 µg/mL
  MIC in 37 °C: 6 µg/mL

## SWLSKTAKKLENSAKKRISEGIAIAIQGGPR [CP1, Cecropin P1]
[3]; Salmonella enterica subsp. enterica serovar Typhimurium LT2
  MIC: 1.2 to 2.4 µM
[4]
  ATI (activity/toxicity index), ratio MHC / MM: > 847.45
[4]; human red blood cells, 1 h, 37 °C
  MHC (minimum haemolytic concentration, concentration causing 10% haemolysis): > 2500 µg/mL
[1]; Replicate 1
  MIC value of E. coli K-12 BW25113 carrying the empty plasmid of the ASKA library: 2.31 µg/mL
  MIC value of E. coli K-12 BW25113 carrying the pooled plasmids of the ASKA library: 2.31 µg/mL
[1]; Replicate 2
  MIC value of E. coli K-12 BW25113 carrying the empty plasmid of the ASKA library: 2.31 µg/mL
  MIC value of E. coli K-12 BW25113 carrying the pooled plasmids of the ASKA library: 2.31 µg/mL
[1]; Replicate 3
  MIC value of E. coli K-12 BW25113 carrying the empty plasmid of the ASKA library: 2.31 µg/mL
  MIC value of E. coli K-12 BW25113 carrying the pooled plasmids of the ASKA library: 2.31 µg/mL
[2]; median of MICs in E. coli K12
  MM (median of MICs): 2.95 µg/mL
[2]
  MIC: 100 µg/mL
